A word on the IC50: it is the point on the concentration scale where inhibition reaches its midpoint. The low end stands for higher potency, the high end for lower potency.

The species entered for experiment [1] is Homo sapiens. The experiment can be described thus: Inhibitory concentration against U 46619 induced aggregation of human washed platelets(WP). Format: functional.
For experiment [2], the target named is T1, Thromboxane-A synthase (Homo sapiens, UniProt P24557).
T1 sequence (P24557 whole entry): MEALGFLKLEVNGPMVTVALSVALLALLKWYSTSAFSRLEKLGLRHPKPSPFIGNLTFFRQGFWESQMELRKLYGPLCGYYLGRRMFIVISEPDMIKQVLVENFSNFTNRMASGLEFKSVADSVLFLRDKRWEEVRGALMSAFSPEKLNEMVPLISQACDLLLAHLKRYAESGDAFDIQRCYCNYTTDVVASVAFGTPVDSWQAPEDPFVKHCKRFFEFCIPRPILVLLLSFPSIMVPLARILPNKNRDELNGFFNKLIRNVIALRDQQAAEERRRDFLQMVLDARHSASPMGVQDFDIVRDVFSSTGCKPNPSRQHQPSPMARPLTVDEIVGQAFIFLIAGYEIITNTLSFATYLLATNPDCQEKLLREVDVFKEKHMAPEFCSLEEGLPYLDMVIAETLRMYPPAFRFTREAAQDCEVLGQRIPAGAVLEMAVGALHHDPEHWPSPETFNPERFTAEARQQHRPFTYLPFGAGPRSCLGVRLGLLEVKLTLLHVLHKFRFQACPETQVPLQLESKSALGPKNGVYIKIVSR
In words: Inhibitory concentration against thromboxane synthase enzyme from human microsomal platelet preparation.

Experiment [3] is filed under the species Homo sapiens. The experiment can be described thus: Inhibitory concentration against U 46619 induced aggregation of human platelet rich plasma(PRP). Format: functional.
Experiment [4] concerns Cavia porcellus. In words: Ratio of EC50 for drug treated animals over that of control was determined for U-46,619 induced ex-vivo platelet aggregation 1 hr post dosing of 10 mg/kg orally. To be noted: route oral. Type of experiment: functional.

With `O=C(O)CCc1ccc(CCCNS(=O)(=O)c2ccc(Cl)cc2)cc1CCc1cccnc1`, the IC50 in experiment [1] came out at 230 nM; in experiment [2], 26 nM.
`O=C(O)Cc1cc(CCCNS(=O)(=O)c2ccc(Cl)cc2)cc(CCc2cccnc2)c1`: the IC50 in experiment [3] was found to be 10700 nM; in experiment [1], 1130 nM; in experiment [2], 7 nM.
`O=C(O)CCc1cc(CCNS(=O)(=O)c2ccc(Cl)cc2)ccc1CCc1cccnc1`: the half-inhibitory concentration (IC50) was found to be 300 nM in experiment [3], 15 nM in experiment [1] and 15 nM in experiment [2]. In addition, the Concentration ratio in experiment [4] came to 52.
With `O=C(O)CCc1ccc(CNS(=O)(=O)c2ccc(Cl)cc2)c(CCc2cccnc2)c1`, the IC50 in experiment [1] came to 380 nM; in experiment [2] it was 43 nM.
Take `COC(=O)CCc1cc(CCNS(=O)(=O)c2ccc(Cl)cc2)cc(CCc2cccnc2)c1`: the IC50 in experiment [3] turned out to be 170 nM; in experiment [1], 3 nM; in experiment [2], 9 nM. For the same compound, in experiment [4], the Concentration ratio is over 100.
